According to US12274679B2, “Substituted alkylphenols as HCN1 antagonists” (Cornell University, priority 2018, dated 2025):
“Also recorded” adds a separate entry of the source. Each block holds one molecule with its values, some of them ahead of it.

Columns and labels:
HCN1 channels = target: T1, HCN1 channels (Mus musculus, UniProt O88704); assay: Two electrode voltage clamp of HCN1 channels expressed in Xenopus oocytes (shift in V1/2); format: cell-based; conditions: for potency as HCN1 inverse agonist compared with propofol: relative to propofol (2,6-di-iso-propylphenol); for offset of the 2,6-DTBP Hill fit of the V1/2 shift: right shift of the concentration-response relative to 2,6-DTBP, HCN1; for efficacy apparent in the concentration response (Hill fit): ΔV1/2 of HCN1, 2,6 di-alkylbenzene analogues; for inhibition of HCN1 channel gating: 20 min pre-incubation, 20 mM HPβCD + DMSO, compared with free 2,6-DTBP
T1 sequence (O88704 74-390 limits assumed): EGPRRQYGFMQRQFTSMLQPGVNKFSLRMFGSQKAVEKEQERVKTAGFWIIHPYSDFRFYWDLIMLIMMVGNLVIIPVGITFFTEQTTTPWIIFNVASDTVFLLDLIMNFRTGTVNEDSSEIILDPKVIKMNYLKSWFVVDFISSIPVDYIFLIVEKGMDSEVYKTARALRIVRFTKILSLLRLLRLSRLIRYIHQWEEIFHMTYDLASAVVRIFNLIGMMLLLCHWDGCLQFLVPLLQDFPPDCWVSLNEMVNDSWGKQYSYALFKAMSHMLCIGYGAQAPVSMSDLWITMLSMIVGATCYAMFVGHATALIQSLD

[1] = test system: mechanical and thermal hyperalgesia after nerve ligation; assay: Nerve ligation model: paw withdrawal probability and hindpaw withdrawal latency after cumulative i.p. dosing
HCN1 vs. HCN2-4 = assay: Effect on V1/2 of HCN1-4 channels (isoform selectivity); format: cell-based
[2] = test system: normal nociception, locomotor activity, motor coordination, muscle strength; conditions: anti-hyperalgesic dose, cited from earlier work
[3] = test system: chronic constriction injury model of peripheral neuropathic pain; conditions: bolus administration; cited from earlier work
[4] = Solubilisation in DMSO and dispersion into aqueous buffer; format: physicochemical
[5] = Whole blood concentration after oral gavage, LC-MS/MS; format: in vivo; conditions: rats, oral gavage in peanut oil, 0.58 mmole/kg, over 30 hours
Method: FIG. 29 is a graph showing the concentration of BP4L-18:1:1 in whole blood after administration to rats. Eight adult rats were gavaged with either 0.5 mL of peanut oil (n=4) or 0.5 mL of peanut oil containing 0.58 mmole/kg BP4L-18:1:1 (n=4). Blood samples were obtained at the indicated times. Following extraction using equi-volumes of acetonitrile, precipitation and filtration, blood concentrations of BP4L-18:1:1 were determined using LC-MS/MS. Dotted black lines indicate the concentrations of BP4L-18:1:1 for individual animals that received drug, the solid black line indicates the mean±SEM for the plus-drug cohort. Dotted and solid grey lines are, respectively, the concentrations of BP4L-18:1:1 detected in individual peanut oil-alone animals and the mean±SEM thereof. Grey lines superimpose and are indistinguishable from the time axis.
LCMS/MS was performed on an Agilent 1290 Infinity II UPLC system and Agilent 6495 Triple Quadrupole mass spectrometer. […] Quantitation was performed using multiple reaction monitoring in positive electrospray ionization mode using the transition 517.4→233.1 and a collision energy of 42. […]
Pharmacokinetic properties of exemplary compound BP4L-18:1:1 (compound 6) were evaluated in rats (FIG. 29). In particular, concentration of BP4L-18:1:1 in whole blood samples were determined over the course of 30 hours after oral administration.

[6] = test system: animal models of neuropathic pain; conditions: in vivo; cited from earlier work
[7] = simultaneous fit, absence and presence of 3 μM 2,6-DTBP

Structure (SMILES): CCC(C)c1ccc(O)c(C(C)CC)c1 (stereo not drawn) [2,4-DSBP, 2,4-di-sec-butylphenol]
- potency as HCN1 inverse agonist compared with propofol (HCN1 channels): less potent
- offset of the 2,6-DTBP Hill fit of the V1/2 shift (HCN1 channels): 23 fold

- potency as HCN1 inverse agonist compared with propofol (HCN1 channels): more potent
- offset of the 2,6-DTBP Hill fit of the V1/2 shift (HCN1 channels): 2 fold
Structure (SMILES): CC(C)(C)c1ccc(O)c(C(C)(C)C)c1 [2,4-DTBP, 2,4-di-tert-butylphenol]

Structure (SMILES): CCc1cccc(CC)c1O [2,6-DEP]
- efficacy apparent in the concentration response (Hill fit) (HCN1 channels): partial

Structure (SMILES): CC(C)C1CCCC(C(C)C)C1O (stereo not drawn) [2,6-DIPCH]
- efficacy apparent in the concentration response (Hill fit) (HCN1 channels): partial

Structure (SMILES): CC(C)c1cccc(C(C)C)c1O [2,6-DIPP, 2,6-di-iso-propylphenol]
- efficacy apparent in the concentration response (Hill fit) (HCN1 channels): full

Structure (SMILES): CCC(C)c1cccc(C(C)CC)c1O (stereo not drawn) [2,6-DSBP, 2,6-di-sec-butylphenol]
- EC50 (HCN1 channels): 370 µM
- potency as HCN1 inverse agonist compared with propofol (HCN1 channels): less potent
- offset of the 2,6-DTBP Hill fit of the V1/2 shift (HCN1 channels): 15 fold
- JcI (association constant, common site model N=4) (HCN1 channels; [7]): 3,696±2,948
- JoI (association constant, common site model N=4) (HCN1 channels; [7]): 881±1,801
- inverse agonist potency and efficacy (HCN1 channels; ΔV1/2 in absence and presence of 3 μM 2,6-DTBP): low potency, high efficacy, inverse agonist
- efficacy apparent in the concentration response (Hill fit) (HCN1 channels): partial

Structure (SMILES): CC(C)(C)C1CCCC(C(C)(C)C)C1O (stereo not drawn) [2,6-DTBCH]
- efficacy apparent in the concentration response (Hill fit) (HCN1 channels): partial

- potency as HCN1 inverse agonist compared with propofol (HCN1 channels): more potent
- efficacy apparent in the concentration response (Hill fit) (HCN1 channels): full
Structure (SMILES): CC(C)(C)c1cccc(C(C)(C)C)c1O [2,6-DTBP, 2,6-di-tert-butylphenol]
- mechanical and thermal hyperalgesia with respect to mechanical and thermal nociception [1]: Selectively Suppresses Mechanical and Thermal Hyperalgesia
- thermal hyperalgesia (HPWL) ([1]; heat source intensity 15%): ameliorates thermal hyperalgesia
- thermal nociception (HPWL) ([1]; heat source intensity 30%): without overt effect
- selectivity for HCN1 vs. HCN2-4 (HCN1 vs. HCN2-4): retains propofol's selectivity for HCN1 vs. HCN2-4
- normal nociception (pin prick test) [2]: does not disrupt normal nociception
- locomotor activity, motor coordination and muscle strength ([2]; open field, rotarod, horizontal wire): nor does it perturb
- reversal of mechanical hypersensitivity [3]: ~45%
- reversal of thermal hypersensitivity [3]: complete reversal

Structure (SMILES): CC(C)c1cc(N)cc(C(C)C)c1O [4-AP]
- HCN1 antagonism by 4-substituted 2,6-DIPPs (HCN1 channels): effective

Structure (SMILES): CC(C)c1cc(C(C)(C)C)cc(C(C)C)c1O [4-TBP]
- HCN1 antagonism by 4-substituted 2,6-DIPPs (HCN1 channels): fully effective

Structure (SMILES): CC(C)c1cc([N+](C)(C)C)cc(C(C)C)c1O [4-TMAP]
- HCN1 antagonism by 4-substituted 2,6-DIPPs (HCN1 channels): ineffective

- dispersion into an aqueous buffer [4]: reasonably easy to disperse
Structure (SMILES): CC(Cl)CCCCCCCCC(=O)c1cc(C(C)(C)C)c(O)c(C(C)(C)C)c1 (stereo not drawn) [BP4C-11:0:1]
- HCN1 antagonism of tethered, unanchored 2,6-DTBP (HCN1 channels; 10 and 100 μM, applied from the outside): 4-adduct tolerance is retained

- dispersion into an aqueous buffer [4]: reasonably easy to disperse
- inhibition of HCN1 channel gating (HCN1 channels): largely ineffective
Structure (SMILES): CC(C)(C)c1cc(C(=O)CCCCCCCCC(O)CO)cc(C(C)(C)C)c1O (stereo not drawn) [BP4L-10:0:1]

- absorption / bioavailability from whole blood concentration [5]: absorbed demonstrating bioavailability
Structure (SMILES): CC(C)(C)c1cc(C(=O)CCCCCCCC/C=C/CCCCCCC(O)CO)cc(C(C)(C)C)c1O (stereo not drawn) [BP4L-18:1:1, (E)-1-(3,5-di-tert-butyl-4-hydroxyphenyl)-18,19-dihydroxynonadec-10-en-1-one]
- inhibition of HCN1 channel gating (HCN1 channels): concentration-dependent; also recorded: effectively inhibits channel gating with a potency and efficacy indistinguishable from free 2,6-DT BP

Structure (SMILES): CCN(c1ccccc1)c1cc(=NC)n(C)c(C)n1.Cl [ZD7288]
- anti-hyperalgesia [6]: significant anti-hyperalgesia

Structure (SMILES): COc1cc2c(cc1OC)CC(=O)N(CCCN(C)C[C@H]1Cc3cc(OC)c(OC)cc31)CC2 [ivabradine]
- anti-hyperalgesia [6]: significant anti-hyperalgesia
